28 molecules from ChEMBL document CHEMBL1155535, “Synthesis and biological evaluation of tricyclic anilinopyrimidines as IKKbeta inhibitors” (Bioorg Med Chem Lett, 2010) can be followed below.

Converted amounts (≈) assume the structure as drawn. Bounds are passed on as bounds.

Series [1] has as its target T1, Inhibitor of nuclear factor kappa-B kinase subunit beta (Homo sapiens, UniProt O14920).
T1 sequence (O14920 whole entry): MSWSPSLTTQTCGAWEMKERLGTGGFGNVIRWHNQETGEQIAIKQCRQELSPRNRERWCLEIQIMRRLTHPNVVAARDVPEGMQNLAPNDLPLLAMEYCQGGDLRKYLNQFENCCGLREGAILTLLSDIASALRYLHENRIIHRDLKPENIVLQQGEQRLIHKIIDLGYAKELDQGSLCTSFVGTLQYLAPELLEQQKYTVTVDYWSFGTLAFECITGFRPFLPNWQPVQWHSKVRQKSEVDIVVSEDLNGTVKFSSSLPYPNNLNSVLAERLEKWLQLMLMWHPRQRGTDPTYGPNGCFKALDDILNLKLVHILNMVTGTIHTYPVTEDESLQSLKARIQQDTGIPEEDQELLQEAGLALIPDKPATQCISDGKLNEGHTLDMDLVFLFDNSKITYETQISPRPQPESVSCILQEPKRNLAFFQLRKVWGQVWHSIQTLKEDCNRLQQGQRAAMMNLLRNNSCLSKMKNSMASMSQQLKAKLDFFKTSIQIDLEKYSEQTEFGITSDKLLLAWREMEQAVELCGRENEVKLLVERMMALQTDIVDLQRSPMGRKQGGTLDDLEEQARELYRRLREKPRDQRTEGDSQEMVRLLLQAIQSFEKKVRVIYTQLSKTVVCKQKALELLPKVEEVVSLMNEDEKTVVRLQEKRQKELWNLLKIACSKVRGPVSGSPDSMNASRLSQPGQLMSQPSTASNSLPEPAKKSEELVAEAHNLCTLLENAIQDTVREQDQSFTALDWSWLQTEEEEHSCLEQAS
The series can be described thus: Inhibition of FLAG-tagged IKK-beta after 30 mins.

Another series deals with LoVo. The series can be described thus: Cytotoxicity against human LoVo cells assessed as growth inhibition. In kind it is functional, cell-based.
The target in series [2] is T1, Inhibitor of nuclear factor kappa-B kinase subunit beta. The series can be described thus: Inhibition of IKK-beta expressed in human HeLa cells transfected with pNFkappaB-luciferase assessed inhibition of TNF-alpha-induced NF-kappaB expression by luciferase reporter gene assay. In kind it is cell-based. On the technique in general: Reporter assays use an easily measured gene product as a stand-in for the process of interest.

Series [3] is described as follows: Apparent permeability from apical to basolateral side in human Caco-2 cells.
The nature of series [4]: Membrane permeability by PAMPA assay. For orientation: The PAMPA barrier holds no transporters, so it reflects passive diffusion.
A short description of series [5]: Aqueous solubility in at pH 7.4.
Series [6] in a line: Apparent permeability from basolateral to apical side in human Caco-2 cells. For orientation: Caco-2 monolayers are a common model of the intestinal barrier.

For the molecule `NS(=O)(=O)c1ccc(Nc2nccc(-c3ccsc3)n2)cc1`, the half-maximal inhibitory concentration (IC50) in series [1] is 180 nM; with LoVo it was 2620 nM; in series [2] it was 1700 nM.

`NS(=O)(=O)c1ccc(Nc2ncc3c(n2)-c2ccc(NC(=O)c4ccco4)cc2CC3)cc1`: the values for the half-maximal inhibitory concentration (IC50) (in series [1]; with LoVo) were 2230 nM and 1060 nM, respectively.

On to `CN(C)CCNS(=O)(=O)c1ccc(Nc2nccc(-c3ccsc3)n2)cc1`, for which the Papp A→B in series [3] was less than 1 ×10⁻⁶ cm/s. In series [4], the apparent permeability coefficient (Papp) amounted to 2.4 ×10⁻⁶ cm/s. Moreover, the IC50 in series [1] turned out to be 230 nM; in the series with LoVo, 2810 nM; in series [2], 770 nM. For the same molecule, in series [5], the solubility was greater than 100 µg/mL. Moreover, in series [6], the Papp B→A is 13.2 ×10⁻⁶ cm/s.

Take `CN(C)CCCNS(=O)(=O)c1ccc(Nc2ncc3c(n2)-c2ccsc2CC3)cc1`: the IC50 was 780 nM in series [1], 1100 nM with LoVo and 620 nM in series [2].

Turning to `NS(=O)(=O)c1ccc(Nc2ncc3c(n2)-c2ccsc2CC3)cc1`, the Papp A→B in series [3] was found to be 34 ×10⁻⁶ cm/s. Moreover, the Papp in series [4] was found to be 0.38 ×10⁻⁶ cm/s. Moreover, the IC50 in series [1] stood at 790 nM; with LoVo it was 330 nM; in series [2], 800 nM. The molecule further registered a solubility in series [5] of less than 1 µg/mL. For the same molecule, in series [6], the Papp B→A turned out to be 20.7 ×10⁻⁶ cm/s.

With `NS(=O)(=O)c1ccc(Nc2ncc3c(n2)-c2ccc(NC(=O)Cc4ccsc4)cc2CC3)cc1`, the IC50 in series [1] turned out to be 310 nM; with LoVo, 490 nM; in series [2], 970 nM.

`COC(=O)CC(=O)Nc1ccc2c(c1)CCc1cnc(Nc3ccc(S(N)(=O)=O)cc3)nc1-2`: the IC50 amounted to 280 nM in series [1] and 620 nM with LoVo.

For `O=S(=O)(NCCO)c1ccc(Nc2nccc(-c3ccsc3)n2)cc1`, the results for the IC50 (in series [1]; with LoVo; in series [2]) were 130 nM, 4110 nM and 3390 nM, respectively.

Consider `Cc1ccc(-c2ccnc(Nc3ccc(S(N)(=O)=O)cc3)n2)s1`, for which the 50% inhibitory concentration (IC50) in series [1] is 19 nM; in the series with LoVo, 1660 nM; in series [2] it was 1710 nM. This molecule came in with a solubility in series [5] of 3 µg/mL (≈ 8.66 µM).

Turning to `NS(=O)(=O)c1ccc(Nc2ncc3c(n2)-c2ccccc2CC3)cc1`, in series [4], the Papp was found to be 2.92 ×10⁻⁶ cm/s. For the same molecule, the IC50 was determined as 1830 nM in series [1], 1050 nM in the series with LoVo and 1430 nM in series [2]. Besides, the solubility in series [5] was determined as 7 µg/mL (≈ 19.9 µM).

Consider `COc1ccc(CC(=O)Nc2ccc3c(c2)CCc2cnc(Nc4ccc(S(N)(=O)=O)cc4)nc2-3)cc1`, for which the concentration for half-maximal inhibition (IC50) worked out at 1830 nM in series [1], 730 nM with LoVo and 1600 nM in series [2].

For the molecule `CC(C)C(=O)Nc1ccc2c(c1)CCc1cnc(Nc3ccc(S(N)(=O)=O)cc3)nc1-2`, the IC50 was determined as 1110 nM in series [1], 660 nM with LoVo and 1460 nM in series [2].

For `NS(=O)(=O)c1ccc(Nc2nccc(-c3ccc(NC(=O)Cc4ccccc4)cc3)n2)cc1`, the apparent permeability (Papp) in series [4] is less than 0.01 ×10⁻⁶ cm/s. For the same molecule, the figures for the IC50 (in series [1]; with LoVo; in series [2]) were 50 nM, 180 nM and 4470 nM, respectively. Further, the solubility in series [5] was determined as 1 µg/mL (≈ 2.18 µM).

With `NS(=O)(=O)c1ccc(Nc2ncc3c(n2)-c2ccccc2CCC3)cc1`, the IC50 in the series on LoVo worked out at 4180 nM; in series [2], 4060 nM.

Turning to `O=S(=O)(NCCO)c1ccc(Nc2ncc3c(n2)-c2ccsc2CC3)cc1`, the IC50 in series [1] turned out to be 1220 nM; in the series on LoVo, 800 nM; in series [2], 1960 nM.

As to `NS(=O)(=O)c1ccc(Nc2ncc3c(n2)-c2ccc(NC(=O)Cc4ccccc4)cc2CC3)cc1`, the Papp in series [4] was 3.37 ×10⁻⁶ cm/s. In addition, the IC50 is 2380 nM in series [1], 190 nM in the series on LoVo and 1790 nM in series [2]. The solubility in series [5] was determined as 9 µg/mL (≈ 18.5 µM).

In turn, `NS(=O)(=O)c1ccc(Nc2nccc(-c3ccc(NC(=O)Cc4cccs4)cc3)n2)cc1` yielded an apparent permeability (Papp) in series [4] of 0.3 ×10⁻⁶ cm/s. In addition, the IC50 was 20 nM in series [1], 250 nM in the series with LoVo and 6910 nM in series [2]. This molecule also displayed a solubility in series [5] of less than 1 µg/mL.

`CC(C)(C)CC(=O)Nc1ccc2c(c1)CCc1cnc(Nc3ccc(S(N)(=O)=O)cc3)nc1-2`: in series [4], the Papp was 2.3 ×10⁻⁶ cm/s. Moreover, the IC50 is 820 nM in series [1], 370 nM with LoVo and 1360 nM in series [2]. In addition, the solubility in series [5] came out at 9 µg/mL (≈ 19.3 µM).

In series [4], `COc1ccc(-c2ccnc(Nc3ccc(S(N)(=O)=O)cc3)n2)cc1` showed a Papp of less than 0.01 ×10⁻⁶ cm/s. Moreover, the results for the concentration for half-maximal inhibition (IC50) (in series [1]; in the series with LoVo; in series [2]) were 40 nM, 2550 nM and 640 nM, respectively. This molecule also displayed a solubility in series [5] of 2.3 µg/mL (≈ 6.45 µM).

For the molecule `NS(=O)(=O)c1ccc(Nc2ncc3c(n2)-c2ccc(NC(=O)C4CCCC4)cc2CC3)cc1`, the IC50 in series [1] amounted to 2200 nM; with LoVo, 830 nM; in series [2] it was 1570 nM.

With `CN(C)CCNS(=O)(=O)c1ccc(Nc2ncc3c(n2)-c2ccsc2CC3)cc1`, the Papp A→B in series [3] was less than 1 ×10⁻⁶ cm/s. The Papp in series [4] worked out at 1.54 ×10⁻⁶ cm/s. Also, the IC50 in series [1] worked out at 770 nM; with LoVo, 680 nM; in series [2], 510 nM. Further, in series [5], the solubility worked out at 36 µg/mL (≈ 83.8 µM). For the same molecule, the basolateral-to-apical permeability (Papp B→A) in series [6] is 3.08 ×10⁻⁶ cm/s.

On to `CN(C)CCCNS(=O)(=O)c1ccc(Nc2nccc(-c3ccsc3)n2)cc1`, for which the IC50 in series [1] worked out at 170 nM; in the series on LoVo, 3380 nM; in series [2], 1060 nM.

As to `CC(C)=CC(=O)Nc1ccc2c(c1)CCc1cnc(Nc3ccc(S(N)(=O)=O)cc3)nc1-2`, the IC50 in series [1] stood at 1590 nM; in the series with LoVo it was 560 nM; in series [2], 8250 nM.

`NS(=O)(=O)c1ccc(Nc2nccc(-c3ccccc3)n2)cc1` yielded a Papp in series [4] of 2.26 ×10⁻⁶ cm/s. Besides, the results for the IC50 (in series [1]; with LoVo) were 20200 nM and 3280 nM, respectively. Besides, in series [5], the solubility came out at 1 µg/mL (≈ 3.06 µM).

In series [4], `NS(=O)(=O)c1ccc(Nc2ncc3c(n2)-c2ccc(NC(=O)Cc4cccs4)cc2CC3)cc1` displayed a Papp of 0.51 ×10⁻⁶ cm/s. For the same molecule, the IC50 amounted to 510 nM in series [1], 290 nM with LoVo and 830 nM in series [2]. For the same molecule, the solubility in series [5] is 6 µg/mL (≈ 12.2 µM).

`CC(C)(C)CC(=O)Nc1ccc(-c2ccnc(Nc3ccc(S(N)(=O)=O)cc3)n2)cc1` showed a Papp in series [4] of 0.6 ×10⁻⁶ cm/s. For the same molecule, the IC50 in series [1] came out at 10 nM; in the series with LoVo, 790 nM; in series [2], 2460 nM. Further, the solubility in series [5] was less than 1 µg/mL.

On to `COc1ccc2c(c1)CCc1cnc(Nc3ccc(S(N)(=O)=O)cc3)nc1-2`, for which the Papp in series [4] stood at 1.8 ×10⁻⁶ cm/s. Also, the IC50 in series [1] is 550 nM; in the series with LoVo, 750 nM; in series [2] it was 420 nM. The solubility in series [5] was less than 1 µg/mL.

On to `CC(C)CC(=O)Nc1ccc2c(c1)CCc1cnc(Nc3ccc(S(N)(=O)=O)cc3)nc1-2`, for which the IC50 in series [1] amounted to 1940 nM; with LoVo, 380 nM; in series [2], 6400 nM.

The IC50 is the point on the concentration scale where inhibition reaches its midpoint. As a reminder, the Papp A→B is how fast a substance crosses the layer from the apical side. The Papp is the rate of passage across a membrane or cell layer, normalised by area and donor concentration. The low end stands for poor permeation, the high end for ready permeation. A word on the solubility: it is the dissolved amount per volume that the medium holds. Broadly, the Papp B→A is the apparent permeability from the basolateral to the apical side of a cell layer.
